From PubChem BioAssay AID1195 (EPA DSSTox, 2008)

System: human maximum recommended daily dose, FDA database
Assay: DSSTox (FDAMDD) FDA Maximum (Recommended) Daily Dose Database
Details: stronger effect = lower value
Procedure, shortened: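 MRDD values come from clinical trials with daily oral dosing, usually for 3–12 months, for the average adult, in mg/day converted to mg/kg-bw/day assuming 60 kg. Antineoplastic mg/m2 doses are divided by 37. Activity score maps log10(1/MRDD mmol) onto 1–100.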

[1] = TherapeuticCategory: anti inflammatory
[2] = TherapeuticCategory: antidepressant
[3] = TherapeuticCategory: skeletal muscle relaxant
[4] = TherapeuticCategory: antibacterial
[5] = TherapeuticCategory: sedative, hypnotic
[6] = TherapeuticCategory: glucocorticoid
[7] = TherapeuticCategory: antineoplastic
[8] = TherapeuticCategory: glucocorticoid, anti inflammatory

Molecule CC(C)NCC(O)c1ccc(NS(C)(=O)=O)cc1 (configuration not stated) has a maximum recommended daily dose (mmol/kg-bw/day) (TherapeuticCategory: antianginal, antiarrhythmic, antihypertensive) of 0.0196.

With CC(N)C12CC3CC(CC(C3)C1)C2 (configuration not stated) the maximum recommended daily dose (mmol/kg-bw/day) (TherapeuticCategory: antiviral) was 0.0186.

With COc1c2occc2cc2ccc(=O)oc12 the maximum recommended daily dose (mmol/kg-bw/day) (TherapeuticCategory: pigmentation agent) was 0.00278.

Work on Cc1cccc(Nc2ccccc2C(=O)O)c1C yielded a maximum recommended daily dose (mmol/kg-bw/day) [1] of 0.0862.

With Cc1cc(C(=O)NNCc2ccccc2)no1 the maximum recommended daily dose (mmol/kg-bw/day) [2] was 0.00432.

COc1ccccc1OCC(O)COC(N)=O (configuration not stated) was tested, and the maximum recommended daily dose (mmol/kg-bw/day) [3] was 0.415.

With CN1CCC(CN2c3ccccc3Sc3ccccc32)C1 (configuration not stated) the maximum recommended daily dose (mmol/kg-bw/day) (TherapeuticCategory: antipruritic) was 0.00169.

In the case of CC(Oc1ccccc1)C(=O)N[C@@H]1C(=O)N2[C@@H]1SC(C)(C)[C@@H]2C(=O)O (some centres not stated), the maximum recommended daily dose (mmol/kg-bw/day) [4] is reported as 0.137.

Nc1ncnc2c1ncn2[C@@H]1O[C@H](COP(=O)(O)OP(=O)(O)OP(=O)(O)O)[C@@H](O)[C@H]1O gave a maximum recommended daily dose (mmol/kg-bw/day) (TherapeuticCategory: coenzyme) of 0.000394.

CCC(=O)C(CC(C)N(C)C)(c1ccccc1)c1ccccc1 (configuration not stated) showed a maximum recommended daily dose (mmol/kg-bw/day) (TherapeuticCategory: narcotic analgesic) of 0.00162.

For Cc1nnc2n1-c1sc(Br)cc1C(c1ccccc1Cl)=NC2, the maximum recommended daily dose (mmol/kg-bw/day) [5] was 1.06e-05.

Work on CCC(c1ccccc1)c1c(O)c2ccccc2oc1=O (configuration not stated) yielded a maximum recommended daily dose (mmol/kg-bw/day) (TherapeuticCategory: anticoagulant) of 0.00143.

Work on C[C@H]1C[C@@H]2[C@H]([C@@H](O)C[C@@]3(C)[C@H]2CC[C@]3(O)C(=O)COC(=O)CCC(=O)O)[C@@]2(C)C=CC(=O)C=C12 yielded a maximum recommended daily dose (mmol/kg-bw/day) [6] of 0.0084.

CC(S)C(=O)NCC(=O)O (configuration not stated) showed a maximum recommended daily dose (mmol/kg-bw/day) (TherapeuticCategory: hepatoprotectant, mucolytic, antidote to heavy metal poisoning) of 0.204.

N[C@@H]1[C@@H](O)[C@@H](O[C@@H]2[C@@H](O)[C@H](O[C@H]3O[C@H](CO)[C@@H](O)[C@H](O)[C@H]3N)[C@@H](N)C[C@H]2N)O[C@H](CO)[C@H]1O was tested, and the maximum recommended daily dose (mmol/kg-bw/day) [4] was 0.031.

COc1cc([C@@H]2c3cc4c(cc3C(O[C@@H]3O[C@@H]5CO[C@@H](C)O[C@H]5[C@H](O)[C@H]3O)C3COC(=O)[C@@H]32)OCO4)cc(OC)c1O (some centres not stated) gave a maximum recommended daily dose (mmol/kg-bw/day) [7] of 0.00459.

With Cc1ccccc1OCC(O)CO (configuration not stated) the maximum recommended daily dose (mmol/kg-bw/day) [3] was 0.274.

Molecule CCCCCCCCCCCCCCCCCC(=O)OCC(=O)OCC(=O)[C@@]1(O)CC[C@H]2[C@@H]3CCC4=CC(=O)C=C[C@]4(C)[C@H]3[C@@H](O)C[C@@]21C has a maximum recommended daily dose (mmol/kg-bw/day) [6] of 0.00486.

C/C=C\C1=C(C(=O)O)N2C(=O)[C@@H](NC(=O)[C@H](N)c3ccc(O)cc3)[C@H]2SC1 showed a maximum recommended daily dose (mmol/kg-bw/day) [4] of 0.0429.

Molecule CN1[C@@H]2CCC[C@H]1CC(NC(=O)c1nn(C)c3ccccc13)C2 (some centres not stated) has a maximum recommended daily dose (mmol/kg-bw/day) (TherapeuticCategory: antiemetic) of 3.2e-05.

CC(=O)N=c1sc(S(N)(=O)=O)nn1C gave a maximum recommended daily dose (mmol/kg-bw/day) (TherapeuticCategory: diuretic) of 0.0212.

O=C(O)C1=C(CSc2nnnn2CS(=O)(=O)O)CS[C@@H]2[C@H](NC(=O)[C@H](O)c3ccccc3)C(=O)N12 showed a maximum recommended daily dose (mmol/kg-bw/day) [4] of 0.0308.

COc1cc(OC)c(C(=O)CCCN2CCCC2)c(OC)c1 was tested, and the maximum recommended daily dose (mmol/kg-bw/day) (TherapeuticCategory: peripheral vasodilator) was 0.0325.

In the case of N#Cc1ccc(C(c2ccc(C#N)cc2)n2cncn2)cc1, the maximum recommended daily dose (mmol/kg-bw/day) [7] is reported as 0.000146.

O=c1[nH]cc(F)c(=O)[nH]1 showed a maximum recommended daily dose (mmol/kg-bw/day) [7] of 0.0923.

CC[C@H](C)[C@H]1O[C@]2(CC[C@@H]1C)C[C@@H]1C[C@@H](C/C=C(\C)[C@@H](O[C@H]3C[C@H](OC)[C@@H](O[C@H]4C[C@H](OC)[C@@H](O)[C@H](C)O4)[C@H](C)O3)[C@@H](C)/C=C/C=C3\CO[C@@H]4[C@H](O)C(C)=C[C@@H](C(=O)O1)[C@]34O)O2 was tested, and the maximum recommended daily dose (mmol/kg-bw/day) (TherapeuticCategory: anthelmintic) was 0.000171.

Work on CC(=O)OCC(=O)[C@@]1(O)CC[C@H]2[C@@H]3CCC4=CC(=O)C=C[C@]4(C)[C@H]3[C@@H](O)C[C@@]21C yielded a maximum recommended daily dose (mmol/kg-bw/day) [6] of 0.00827.

With CNCCc1ccccn1 the maximum recommended daily dose (mmol/kg-bw/day) (TherapeuticCategory: vasodilator) was 0.00587.

With COC(=O)c1ccc(O)cc1 the maximum recommended daily dose (mmol/kg-bw/day) (TherapeuticCategory: none) was 0.0657.

In the case of CCOc1ccccc1OCCN[C@H](C)Cc1ccc(OC)c(S(N)(=O)=O)c1, the maximum recommended daily dose (mmol/kg-bw/day) (TherapeuticCategory: alpha 1A androceptor antagonist) is reported as 3.26e-05.

For C1CCN2C[C@@H]3C[C@@H](CN4CCCC[C@@H]34)[C@H]2C1, the maximum recommended daily dose (mmol/kg-bw/day) (TherapeuticCategory: oxytocic) was 0.0427.

CC(=O)OCC(=O)[C@@]1(OC(=O)c2ccco2)[C@H](C)C[C@H]2[C@@H]3CCC4=CC(=O)C=C[C@]4(C)[C@@]3(F)[C@@H](O)C[C@@]21C gave a maximum recommended daily dose (mmol/kg-bw/day) [8] of 0.000284.

CC1(C)S[C@@H]2[C@H](NC(=O)C3(N)CCCCC3)C(=O)N2[C@H]1C(=O)O gave a maximum recommended daily dose (mmol/kg-bw/day) [4] of 0.0975.

In the case of CO[C@@]1(NC(=O)Cc2cccs2)C(=O)N2C(C(=O)O)=C(COC(N)=O)CS[C@@H]21, the maximum recommended daily dose (mmol/kg-bw/day) [4] is reported as 0.468.

COc1ccc2cc1Oc1cc3c(cc1OC)CC[N+](C)(C)[C@H]3Cc1ccc(cc1)Oc1c(OC)c(OC)cc3c1[C@@H](C2)[N+](C)(C)CC3 gave a maximum recommended daily dose (mmol/kg-bw/day) [3] of 0.000441.

Work on CC1(C)S[C@@H]2[C@H](NC(=O)COc3ccccc3)C(=O)N2[C@H]1C(=O)O yielded a maximum recommended daily dose (mmol/kg-bw/day) [4] of 0.0713.

For CCCCC(=O)OCC(=O)[C@@]1(O)[C@H](C)C[C@H]2[C@@H]3CCC4=CC(=O)C=C[C@]4(C)[C@@]3(F)[C@@H](O)C[C@@]21C, the maximum recommended daily dose (mmol/kg-bw/day) [8] was 0.000315.

Work on O=C(O)COc1ccc(C(=O)c2cccs2)c(Cl)c1Cl yielded a maximum recommended daily dose (mmol/kg-bw/day) (TherapeuticCategory: diuretic, uricosuric, antihypertensive) of 0.0252.

NS(=O)(=O)c1cc2c(cc1Cl)NCNS2(=O)=O gave a maximum recommended daily dose (mmol/kg-bw/day) (TherapeuticCategory: diuretic) of 0.0112.

For CCC(=O)c1ccc2c(c1)N(CC(C)N(C)C)c1ccccc1S2 (configuration not stated), the maximum recommended daily dose (mmol/kg-bw/day) [5] was 0.00245.

In the case of Cn1c(=O)c2c(ncn2CCO)n(C)c1=O, the maximum recommended daily dose (mmol/kg-bw/day) (TherapeuticCategory: bronchodilator) is reported as 0.0372.

NC(Cc1cc(I)c(Oc2cc(I)c(O)c(I)c2)c(I)c1)C(=O)O (configuration not stated) was tested, and the maximum recommended daily dose (mmol/kg-bw/day) (TherapeuticCategory: thyroid hormone, antihyperlipoproteinemic) was 6.44e-06.

NCCc1cnc[nH]1 showed a maximum recommended daily dose (mmol/kg-bw/day) (TherapeuticCategory: gastrointestinal) of 0.00013.

With CO[C@@H]1[C@@H](OC(N)=O)[C@@H](O)[C@H](Oc2ccc3c(O)c(NC(=O)c4ccc(O)c(CC=C(C)C)c4)c(=O)oc3c2C)OC1(C)C the maximum recommended daily dose (mmol/kg-bw/day) [4] was 0.0394.

CC(=O)Nc1ccc(O)cc1 gave a maximum recommended daily dose (mmol/kg-bw/day) (TherapeuticCategory: analgesic, antipyretic) of 0.331.

O=C(O)Cc1sc(-c2ccccc2)nc1-c1ccc(Cl)cc1 was tested, and the maximum recommended daily dose (mmol/kg-bw/day) [1] was 0.0455.

In the case of CN1CC[C@]23c4c5ccc(O)c4O[C@H]2C(=O)CC[C@H]3[C@H]1C5, the maximum recommended daily dose (mmol/kg-bw/day) (TherapeuticCategory: analgesic) is reported as 0.0014.

Molecule CCC1(c2ccccc2)NC(=O)N(C)C1=O (configuration not stated) has a maximum recommended daily dose (mmol/kg-bw/day) (TherapeuticCategory: anticonvulsant) of 0.0458.

In the case of O=C(O)C(S)C(S)C(=O)O (configuration not stated), the maximum recommended daily dose (mmol/kg-bw/day) (TherapeuticCategory: antidote for heavy metal poisoning, radioactive imaging agent) is reported as 0.0549.

CCc1nc(N)nc(N)c1-c1ccc(Cl)cc1 showed a maximum recommended daily dose (mmol/kg-bw/day) (TherapeuticCategory: antimalarial) of 0.00503.

For CN(C)CCOC(C)(c1ccccc1)c1ccc(Cl)cc1 (configuration not stated), the maximum recommended daily dose (mmol/kg-bw/day) (TherapeuticCategory: antiamebic) was 0.123.

In the case of COc1ccc(Cc2nccc3cc(OC)c(OC)cc23)cc1OC, the maximum recommended daily dose (mmol/kg-bw/day) (TherapeuticCategory: smooth muscle relaxant, cerebral vasodilator) is reported as 0.0295.

CN(CC(=O)N1CCOCC1)Cc1c(Cl)cccc1NC(=O)c1ccccc1 gave a maximum recommended daily dose (mmol/kg-bw/day) (TherapeuticCategory: antitussive, respiratory stimulant) of 0.0199.

In the case of O=C1CSC2(CCN(CCCN3c4ccccc4Sc4ccc(Cl)cc43)CC2)N1, the maximum recommended daily dose (mmol/kg-bw/day) (TherapeuticCategory: antipsychotic) is reported as 0.0155.

CC(CN(C)C)CN1c2ccccc2CCc2ccccc21 (configuration not stated) gave a maximum recommended daily dose (mmol/kg-bw/day) [2] of 0.0113.

Molecule O[C@@H]([C@H](O)[C@@H](O)CBr)[C@@H](O)CBr has a maximum recommended daily dose (mmol/kg-bw/day) [7] of 0.0135.

CC(=O)OCC(=O)[C@@]1(O)[C@@H](C)C[C@H]2[C@@H]3CCC4=CC(=O)C=C[C@]4(C)[C@@]3(F)[C@@H](O)C[C@@]21C showed a maximum recommended daily dose (mmol/kg-bw/day) [6] of 0.000345.

In the case of O=C(O)[C@H](O)[C@@H](O)C(=O)O, the maximum recommended daily dose (mmol/kg-bw/day) (TherapeuticCategory: none) is reported as 0.2.

Work on CN(C)CC/C=C1\c2ccccc2COc2ccc(CC(=O)O)cc21 yielded a maximum recommended daily dose (mmol/kg-bw/day) (TherapeuticCategory: antihistaminic, antiallergic) of 0.000987.

O=C(c1ccccc1)c1ccc2n1CCC2C(=O)O (configuration not stated) showed a maximum recommended daily dose (mmol/kg-bw/day) (TherapeuticCategory: analgesic, anti inflammatory) of 0.00979.

In the case of CC1(C)S[C@@H]2[C@H](NC(=O)[C@H](C(=O)O)c3ccsc3)C(=O)N2[C@H]1C(=O)O, the maximum recommended daily dose (mmol/kg-bw/day) [4] is reported as 0.78.

C=CC[C@]1(O)CC[C@H]2[C@@H]3CCC4=CCCC[C@@H]4[C@H]3CC[C@@]21C was tested, and the maximum recommended daily dose (mmol/kg-bw/day) (TherapeuticCategory: progestogen) was 0.000832.
